Laboratory results published in patent US20210009613A1, “ARYLPHOSPHINE OXIDES FOR INHIBITING KINASE ACTIVITY” (Shenzhen TargetRx, Inc., priority 2017, published 2021).

Experiments:
Ba/F3 parental = assay: Cytotoxicity test (CellTiter-Glo), Ba/F3 parental; format: cell-based; conditions: Mus musculus, BaF3, 72 hours
Description: (§1) The in vitro anti-proliferative activity of the compounds of the present disclosure against three types of cells that are cultured in vitro was tested by CellTiter-Glo method.
(§2) Cell lines: Ba/F3 parental; Ba/F3 [EML4-ALK] (From WuXi PharmaTech) and Ba/F3 [EML4-ALK L1196M] (From WuXi PharmaTech); wherein, Ba/F3 parental was cultured in RPMI1640 medium containing 10 ng/ml IL-3, […], 100 U/ml penicillin, and 100 μg/ml streptomycin, Ba/F3 [EML4-ALK] and Ba/F3 [EML4-ALK L1196M] were cultured in RPMI1640 medium containing 10% fetal bovine serum, 100 U/ml penicillin, and 100 μg/ml streptomycin.
(§3) Reagents and materials: RPMI-1640 (GIBCO, Cat. No. A10491-01); fetal bovine serum (GIBCO, Cat. No. 10099141); 0.25% trypsin-EDTA (GIBCO, Cat. No. 25200); penicillin-streptomycin, liquid (GIBCO, Cat. No. 15140-122); DMSO (Sigma, Cat. No. D2650); CellTiter-Glo Test Kit (Promega, Cat. No. G7572), and 96-well plate (Corning, Cat. No. 3365).
(§4) Specific experimental procedures: • 1. The test compounds were dissolved in DMSO to make stock solutions and subjected to a series gradient dilution to give solutions with 10-fold working concentration. • 2. The cells in the logarithmic growth phase were diluted with the culture solution to adjust to the specific cell concentration, 90 μl of cell suspension was added to the 96-well plate to make the cell density reach the specified concentration. The plate was incubated in a incubator at 37° C., containing 5% carbon dioxide gas overnight. • 3. 10 μl drug solutions were added to each well of the 96-well plate inoculated with cells. 10 concentrations of the compounds were tested starting from the highest concentration of 20 μM with a 3-fold series gradient dilution in duplicate. • 4. After continuously cultured for 72 hours, the cells were detected by CellTiter-Glo for the cell viability. The dose-effect curve was made using GraphPad Prism software and IC50 was calculated.

Ba/F3 [EML4-ALK] [1] = target: T1, Ba/F3 [EML4-ALK] (Homo sapiens, UniProt Q9UM73); assay: Cytotoxicity test (CellTiter-Glo), Ba/F3 [EML4-ALK]; format: cell-based; conditions: 72 hours, CellTiter-Glo; read-out: IC50(nM) ALK (Ba/F3)
T1 construct: IC50(nM) ALK (Ba/F3); other: 72 hours, CellTiter-Glo; Ba/F3 [EML4-ALK]; fused on or other part: Q9HC35 (Echinoderm microtubule-associated protein-like 4)
Description: as §1, §2, §3, §4

Ba/F3 [EML4-ALK] [2] = assay: as above; format: cell-based; conditions: ratio of Ba/F3 IC50 values
Description: as §1, §2, §3, §4

ALK [WT] = ALK [WT] (Homo sapiens, UniProt Q9UM73); assay: Kinase inhibition assay, ALK [WT]; format: biochemical
Description: (§5) Compound preparation: The test compounds were dissolved in DMSO to make 20 mM stock solutions. The compounds were diluted in DMSO to 0.1 mM (a dilution with 100 times the final concentration) before use, and a 3-fold series gradient dilution with 11 concentrations was made. Dilutions with 4 times of the final concentration were prepared by diluting with buffer when dosing.
(§6) Kinase assay: after preparing the buffer solution, the enzyme was mixed with pre-diluted compounds with different concentrations, and placed at room temperature for 30 minutes in duplicate. The corresponding substrate and ATP were added thereto and reacted at room temperature for 60 minutes (both a negative and a positive control were set). After the reaction, antibody was added for detection, and after incubation at room temperature for 60 minutes, Evnvision detection was carried out, and data was collected. Data was analyzed and fit according to XLfit5 software. IC50 was calculated by the following formula: (IC50=[(ABS test-ABS begin)/(ABS control-ABS begin)]×100).

Ba/F3 [EML4-ALK L1196M] [3] = target: T2, Ba/F3 [EML4-ALK L1196M] (Homo sapiens, UniProt Q9UM73, L1196M, cells depend on it); assay: Cytotoxicity test (CellTiter-Glo), Ba/F3 [EML4-ALK L1196M]; format: cell-based; conditions: 72 hours, CellTiter-Glo; read-out: IC50(nM) ALK[L1196M] (Ba/F3)
T2 construct: IC50(nM) ALK[L1196M]; (Ba/F3); other: 72 hours, CellTiter-Glo; Ba/F3 [EML4-ALK L1196M]; fused on or other part: Q9HC35 (Echinoderm microtubule-associated protein-like 4)
Description: as §1, §2, §3, §4

Ba/F3 [EML4-ALK L1196M] [4] = assay: as above; format: cell-based; conditions: ratio of Ba/F3 IC50 values
Description: as §1, §2, §3, §4

ALK [L1196M] = ALK [L1196M] (Homo sapiens, UniProt Q9UM73, L1196M); assay: Kinase inhibition assay, ALK [L1196M]; format: biochemical
Description: as §5, §6

Sequence of ALK [WT] (Q9UM73 19-1620): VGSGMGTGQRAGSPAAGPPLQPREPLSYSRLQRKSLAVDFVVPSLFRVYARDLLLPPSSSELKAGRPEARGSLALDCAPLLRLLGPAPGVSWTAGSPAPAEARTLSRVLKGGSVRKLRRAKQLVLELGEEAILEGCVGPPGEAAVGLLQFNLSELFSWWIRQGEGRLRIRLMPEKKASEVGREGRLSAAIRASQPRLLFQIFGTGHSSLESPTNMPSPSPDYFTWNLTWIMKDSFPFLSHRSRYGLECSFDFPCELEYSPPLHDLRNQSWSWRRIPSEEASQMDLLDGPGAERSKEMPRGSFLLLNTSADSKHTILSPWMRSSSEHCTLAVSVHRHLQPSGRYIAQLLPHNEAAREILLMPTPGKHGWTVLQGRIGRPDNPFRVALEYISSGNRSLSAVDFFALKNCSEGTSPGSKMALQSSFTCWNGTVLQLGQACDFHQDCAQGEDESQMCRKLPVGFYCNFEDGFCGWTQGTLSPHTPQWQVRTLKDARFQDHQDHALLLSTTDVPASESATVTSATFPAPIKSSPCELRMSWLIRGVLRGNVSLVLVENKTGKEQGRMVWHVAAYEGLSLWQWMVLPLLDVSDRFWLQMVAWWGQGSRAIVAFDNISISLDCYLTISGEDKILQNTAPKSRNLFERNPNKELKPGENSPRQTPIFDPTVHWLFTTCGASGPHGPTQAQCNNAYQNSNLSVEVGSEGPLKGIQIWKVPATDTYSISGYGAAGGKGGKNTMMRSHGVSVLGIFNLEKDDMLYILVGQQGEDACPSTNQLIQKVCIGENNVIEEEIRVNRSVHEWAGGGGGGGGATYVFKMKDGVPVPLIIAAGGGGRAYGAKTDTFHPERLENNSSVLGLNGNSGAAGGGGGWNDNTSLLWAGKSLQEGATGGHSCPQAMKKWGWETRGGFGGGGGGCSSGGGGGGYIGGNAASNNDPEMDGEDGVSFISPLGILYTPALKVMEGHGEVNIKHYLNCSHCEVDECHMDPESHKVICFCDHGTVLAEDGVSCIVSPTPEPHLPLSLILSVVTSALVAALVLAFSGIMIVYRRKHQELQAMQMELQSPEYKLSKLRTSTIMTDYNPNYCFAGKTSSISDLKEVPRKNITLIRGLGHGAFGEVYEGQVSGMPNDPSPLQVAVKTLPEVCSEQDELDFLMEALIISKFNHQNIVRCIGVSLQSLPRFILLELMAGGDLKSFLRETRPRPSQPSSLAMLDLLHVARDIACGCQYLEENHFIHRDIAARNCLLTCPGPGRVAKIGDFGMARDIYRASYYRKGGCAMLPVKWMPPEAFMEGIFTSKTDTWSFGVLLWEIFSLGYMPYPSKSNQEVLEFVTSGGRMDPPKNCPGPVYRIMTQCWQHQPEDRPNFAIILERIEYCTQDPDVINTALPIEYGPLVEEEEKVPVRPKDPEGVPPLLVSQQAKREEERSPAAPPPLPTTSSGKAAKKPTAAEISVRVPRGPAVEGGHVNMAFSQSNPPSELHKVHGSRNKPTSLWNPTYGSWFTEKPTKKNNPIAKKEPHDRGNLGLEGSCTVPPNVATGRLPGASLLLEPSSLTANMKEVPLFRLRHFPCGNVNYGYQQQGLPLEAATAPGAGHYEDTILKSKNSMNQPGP
T1 sequence (Q9UM73 whole entry, change not shown, the tested form may be a part): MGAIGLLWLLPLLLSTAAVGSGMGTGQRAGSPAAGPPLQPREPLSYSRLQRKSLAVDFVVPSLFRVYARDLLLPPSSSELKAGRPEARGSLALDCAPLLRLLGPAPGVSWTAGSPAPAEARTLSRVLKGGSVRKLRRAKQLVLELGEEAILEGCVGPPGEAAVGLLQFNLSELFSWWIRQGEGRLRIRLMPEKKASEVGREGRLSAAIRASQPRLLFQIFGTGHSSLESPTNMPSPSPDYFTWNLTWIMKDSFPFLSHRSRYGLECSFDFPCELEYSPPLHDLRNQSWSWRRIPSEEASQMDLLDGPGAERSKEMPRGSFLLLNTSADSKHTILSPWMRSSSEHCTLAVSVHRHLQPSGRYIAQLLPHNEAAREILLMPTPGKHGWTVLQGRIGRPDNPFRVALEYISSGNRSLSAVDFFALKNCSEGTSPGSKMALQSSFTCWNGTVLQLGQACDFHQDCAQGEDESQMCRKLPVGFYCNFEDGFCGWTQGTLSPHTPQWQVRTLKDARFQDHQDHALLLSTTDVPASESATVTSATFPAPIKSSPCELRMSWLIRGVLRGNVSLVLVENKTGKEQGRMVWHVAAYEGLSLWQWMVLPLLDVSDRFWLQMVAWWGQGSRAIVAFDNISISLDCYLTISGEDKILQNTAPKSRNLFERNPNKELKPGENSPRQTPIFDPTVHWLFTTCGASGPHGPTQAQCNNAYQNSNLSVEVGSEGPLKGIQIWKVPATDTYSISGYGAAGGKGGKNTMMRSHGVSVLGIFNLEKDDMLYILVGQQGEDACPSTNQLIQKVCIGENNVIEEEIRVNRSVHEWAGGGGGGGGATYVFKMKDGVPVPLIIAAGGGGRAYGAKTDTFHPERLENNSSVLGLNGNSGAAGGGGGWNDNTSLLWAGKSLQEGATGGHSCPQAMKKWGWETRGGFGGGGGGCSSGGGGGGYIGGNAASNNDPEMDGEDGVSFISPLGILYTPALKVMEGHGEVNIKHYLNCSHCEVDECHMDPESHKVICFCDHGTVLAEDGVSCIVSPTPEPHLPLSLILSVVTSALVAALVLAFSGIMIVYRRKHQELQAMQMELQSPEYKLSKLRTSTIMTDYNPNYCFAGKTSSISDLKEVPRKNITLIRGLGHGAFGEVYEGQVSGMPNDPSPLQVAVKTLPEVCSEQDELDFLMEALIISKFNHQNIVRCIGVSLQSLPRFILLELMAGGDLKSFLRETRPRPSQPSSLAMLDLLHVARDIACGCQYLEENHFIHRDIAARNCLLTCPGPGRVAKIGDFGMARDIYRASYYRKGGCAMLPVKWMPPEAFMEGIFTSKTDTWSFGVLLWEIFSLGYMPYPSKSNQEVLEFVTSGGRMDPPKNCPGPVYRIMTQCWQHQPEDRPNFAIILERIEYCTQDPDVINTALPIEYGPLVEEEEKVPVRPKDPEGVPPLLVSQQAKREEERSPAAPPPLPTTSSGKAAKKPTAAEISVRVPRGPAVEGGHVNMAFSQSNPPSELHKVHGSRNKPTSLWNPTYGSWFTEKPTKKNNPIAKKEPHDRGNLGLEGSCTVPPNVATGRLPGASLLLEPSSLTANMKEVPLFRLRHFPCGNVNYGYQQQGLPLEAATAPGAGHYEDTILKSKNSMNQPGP
Sequence of ALK [L1196M] (Q9UM73 19-1620 L1196M): as the sequence (Q9UM73 19-1620) above, with L1178M counted along it
T2 sequence (Q9UM73 whole entry L1196M, the tested form may be a part): as the sequence (Q9UM73 whole entry, change not shown, the tested form may be a part) above, with L1196M counted along it

Row | SMILES | IC50 (Ba/F3 parental) [nM] | GI50 (Ba/F3 [EML4-ALK] [1]) [nM] | Selectivity parental/ALK (Ba/F3 [EML4-ALK] [2]) | IC50 (ALK [WT]) [nM] | GI50 (Ba/F3 [EML4-ALK L1196M] [3]) [nM] | Selectivity parental/ALK[L1196M] (Ba/F3 [EML4-ALK L1196M] [4]) | IC50 (ALK [L1196M]) [nM]
1 | COc1nc(N2CCC(N(C)C)CC2)ccc1Nc1ncc(Cl)c(Nc2ccccc2P(C)(C)=O)n1 [Example 1, (2-((5-chloro-2-((6-(4-(dimethylamino)piperidin-1-yl)-2-methoxypyridin-3-)amino)pyrimidin-4-yl)amino)phenyl)dimethylphosphine oxide] | ≥ 1000 | ≤ 50 | 50~100 | ≤ 5 | 50 to 100 | 0~50 | 5 to 10
2 | COc1nc(N2CCN(C)CC2)ccc1Nc1ncc(Cl)c(Nc2ccccc2P(C)(C)=O)n1 [Example 2, (2-((5-chloro-2-((2-methoxy-6-(4-methylpiperazin-1-yl)pyridin-3-yl)amino)pyrimidin-4-yl)amino)phenyl)dimethylphosphine oxide] | ≥ 1000 | ≤ 50 | 50~100 | ≤ 5 | 50 to 100 | 0~50 | ≤ 5
3 | COc1nc(N(C)CCN(C)C)ccc1Nc1ncc(Cl)c(Nc2ccccc2P(C)(C)=O)n1 [Example 3, (2-((5-chloro-2-((6-((2-(dimethylamino)ethyl)(methyl)amino)-2-methoxypyridin-3-yl)amino)pyrimidin-4-yl)amino)phenyl)dimethylphosphine oxide] | ≥ 1000 | ≤ 50 | 100~200 | ≤ 5 | 50 to 100 | 50~100 | 5 to 10
4 | COc1nc(N2CCC(N3CCN(C)CC3)CC2)ccc1Nc1ncc(Cl)c(Nc2ccccc2P(C)(C)=O)n1 [Example 4, (2-((5-chloro-2-((2-methoxy-6-(4-(4-methylpiperazin-1-yl)piperidin-1-yl)pyridin-3-yl)amino)pyrimidin-4-yl)amino)phenyl)dimethylphosphine oxide] | ≥ 1000 | ≤ 50 | 50~100 | 5 to 10 | 50 to 100 | 0~50 | 5 to 10
5 | CC(C)Oc1nc(N2CCC(N(C)C)CC2)ccc1Nc1ncc(Cl)c(Nc2ccccc2P(C)(C)=O)n1 [Example 5, (2-((5-chloro-2-((6-(4-(dimethyaminono)piperidin-1-yl)-2-isopropoxypyridin-3-yl)amino)pyrimidin-4-yl)amino)phenyl)dimethylphosphine oxide] | ≥ 1000 | ≤ 50 | 100~200 | 5 to 10 | 50 to 100 | 50~100 | ≤ 5
6 | CC(C)Oc1nc(N2CCN(C)CC2)ccc1Nc1ncc(Cl)c(Nc2ccccc2P(C)(C)=O)n1 [Example 6, (2-((5-chloro-2-((2-isopropoxy-6-(4-methylpiperazin-1-yl)pyridin-3-yl)amino)pyrimidin-4-yl)amino)phenyl)dimethylphosphine oxide] | ≥ 1000 | ≤ 50 | 200~400 | 5 to 10 | 100 to 400 | 50~100 | ≤ 5
7 | CC(C)Oc1nc(N(C)CCN(C)C)ccc1Nc1ncc(Cl)c(Nc2ccccc2P(C)(C)=O)n1 [Example 7, (2-((5-chloro-2-((6-((2-(dimethylamino)ethyl)(methyl)amino)-2-isopropoxypyridin-3-yl)amino)pyrimidin-4-yl)amino)phenyl)dimethylphosphine oxide] | ≥ 1000 | ≤ 50 | 200~400 | 10 to 50 | 50 to 100 | 50~100 | 5 to 10
8 | CC(C)Oc1nc(N2CCC(N3CCN(C)CC3)CC2)ccc1Nc1ncc(Cl)c(Nc2ccccc2P(C)(C)=O)n1 [Example 8, (2-((5-chloro-2-((2-isopropoxy-6-(4-(4-methylpiperazin-1-yl)piperidin-1-yl)pyridin-3-yl)amino)pyrimidin-4-yl)amino)phenyl)dimethyl phosphine oxide] | ≥ 1000 | ≤ 50 | 200~400 | 5 to 10 | 100 to 400 | 50~100 | 5 to 10
9 | CN(C)C1CCN(c2ccc(Nc3ncc(Cl)c(Nc4ccccc4P(C)(C)=O)n3)c(OCC(F)(F)F)n2)CC1 [Example 9, (2-((5-chloro-2-((6-(4-(dimethyaminono)piperidin-1-yl)-2-(2,2,2-trifluoroethoxy)pyridin-3-yl)amino)pyrimidin-4-yl)amino)phenyl)dimethylphosphine oxide] | ≥ 1000 | ≤ 50 | 200~400 | ≤ 5 | 50 to 100 | 50~100 | 5 to 10
10 | CN1CCN(c2ccc(Nc3ncc(Cl)c(Nc4ccccc4P(C)(C)=O)n3)c(OCC(F)(F)F)n2)CC1 [Example 10, (2-((5-chloro-2-((6-(4-methylpiperazin-1-yl)-2-(2,2,2-trifluoroethoxy)pyridin-3-yl)amino)pyrimidin-4-yl)amino)phenyl)dimethylphosphine oxide] | ≥ 1000 | ≤ 50 | 100~200 | ≤ 5 | 100 to 400 | 50~100 | 5 to 10
11 | CN(C)CCN(C)c1ccc(Nc2ncc(Cl)c(Nc3ccccc3P(C)(C)=O)n2)c(OCC(F)(F)F)n1 [Example 11, (2-((5-chloro-2-((6-((2-(dimethylamino)ethyl)(methyl)amino)-2-(2,2,2-trifluoroethoxy)pyridin-3-yl)amino)pyrimidin-4-yl)amino)phenyl)dimethylphosphine oxide] | ≥ 1000 | 50 to 100 | 100~200 | ≤ 5 | 100 to 400 | 50~100 | 10 to 50
